Patent US9211313B2, “Methods and compound to inhibit Ca2+ permeable cation conductance” (priority 2011, dated 2015)

Tests used:
[1] = test system: mechanosensitive channel (MSC); conditions: previously shown; cited from earlier work
[2] = biological target: T1, KCa3.1 (Homo sapiens, UniProt O15554); experiment: A23187-stimulated KCa3.1 activity measured as 86Rb influx; type: cell-based; conditions: 1 μM; intact human AA cells, 1 μM A23187, extracellular Ca2+; n=3
T1 construct: KCa3.1 activity stimulated in intact human AA cells by 1 μM A23187; endogenous in cells; host or cells: intact human AA red blood cells

[3] = test system: human SS red cells; experiment: Fluo-3 fluorescence measurement of [Ca2+]i during deoxygenation, human SS cells; type: cell-based; conditions: 1 μM, 10 min pretreatment and continued presence in bath
Protocol: Blood cell preparation: Human SS and AA blood was obtained under IRB-approved protocols of Children's Hospital and Beth Israel Deaconess Medical Center. After buffy coat removal and 5 washes in standard human red cell wash solution containing (in mM) 150 choline Cl, 1 MgCl, and 10 Tris-MOPS, pH 7.4, red cells were resuspended in storage solution containing (in mM) 145 KCl, 15 NaCl, and 10 HEPES, pH 7.4, then kept at 4° C. until used. Human red cells allowed to settle on coverslips were mounted on an inverted microscope in a 200 μl open chamber (WPI, Sarasota, Fla.) and superfused 15 min at room temperature by bath solution containing (in mM) 150 Na methanesulfonate, 10 Na EDTA, and 10 Na HEPES, pH 7.4.
Washed human or mouse red cells in solution containing (in mM) 140 NaCl, 5 KCl, 1 CaCl2, 1 MgCl2, 10 Na HEPES, pH 7.4 were exposed for 1 hr on a rotary platform in a 37° C. incubator to 25 ppm carbon monoxide (CO) in 5% CO2. CO-exposed cells were then subjected to patch clamp or to calcium imaging experiments within 60 min after return to room air, using the solutions indicated.
Fluorescence measurements of cytosolic [Ca^2+] ([Ca^2+]i): After removal of plasma and buffy coat by aspiration, human or mouse red cells were washed three times at room temperature and suspended in modified Hank's solution containing (in mM), 137 NaCl, 5.4 KCl, 1 CaCl2, 1 MgCl2, 0.8 NaK phosphate, 5.6 glucose, and 10 Na HEPES, pH 7.4. Dilute cell suspensions were settled on polylysine-coated coverslips forming the bottom of an open perfusion chamber (2.5 cm diameter, 1 cm depth) and washed again 3 times.
Measurement of relative changes in [Ca^2+]i by Fluo-3 fluorescence emission was previously validated in intact human (Yang et al. 2000, Blood, 95(7):2421-2425; Andrews et al. 2002, Blood, 199(9):3392-3399) and mouse red cells (Akel et al. 2007, Amer. J. Physiol., 292(5):C1759-1767). […] Fluorescence emission (proportional to [Ca^2+]i) from a 535ds20 bandpass filter was collected from all attached single cells within the arbitrarily selected visual field. […]
Fluo-3 fluorescence from attached cells on each coverslip was recorded 60 sec in room air and then for 10 min after onset of perfusion chamber flushing with humidified 100% N2. The normalized increase in Fluo-3 fluorescence in SS cells subjected to this deoxygenation procedure was indistinguishable from that observed during superfusion of cells in a closed perfusion chamber via syringe pump with bath previously bubbled for 60 min with 100% N2 (n=62 cells from 2 SS patients, not shown). The y-axis value of 0% change in Fluo-3 fluorescence intensity represented mean intensity recorded from all cells within the coverslip visual field during the 60 sec prior to deoxygenation.

T1 sequence (O15554 whole entry): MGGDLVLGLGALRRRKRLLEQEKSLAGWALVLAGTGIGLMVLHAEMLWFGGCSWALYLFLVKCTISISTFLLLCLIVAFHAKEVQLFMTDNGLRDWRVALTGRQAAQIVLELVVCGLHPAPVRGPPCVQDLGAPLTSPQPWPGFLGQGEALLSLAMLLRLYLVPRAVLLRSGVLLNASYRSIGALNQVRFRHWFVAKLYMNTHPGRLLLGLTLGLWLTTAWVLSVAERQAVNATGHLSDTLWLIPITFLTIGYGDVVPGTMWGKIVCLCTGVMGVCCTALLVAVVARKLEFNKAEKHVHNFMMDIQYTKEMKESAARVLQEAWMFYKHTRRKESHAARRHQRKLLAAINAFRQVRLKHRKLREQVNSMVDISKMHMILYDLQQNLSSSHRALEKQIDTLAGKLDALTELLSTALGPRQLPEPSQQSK

Substance: Grammastola spatulata mechanotoxin 4 (GCLEFWWKCNPNDDKCCRPKLKCSKLFKLCNFSF; listed as Grammastola spatulata) [GsMTx-4]
- effect on mechanosensitive channel (MSC) activity [1]: block
- effect on KCa3.1 activity, 86Rb influx [2]: no effect
- effect on [Ca2+]i elevation by deoxygenation [3]: prevented
- effect on [Ca2+]i elevation by deoxygenation ([3]; listed as GsMTx4): nearly completely block
- effect on [Ca2+]i elevation by deoxygenation ([3]; listed as GsTMx-4): blocked
